Our source for the IC50 values is patent US20060264460A1 (Wyeth, priority 2005, published 2006).

The target in this assay is T1, human Cot/Tpl2 kinase (Homo sapiens, UniProt P41279).
T1 construct: human Cot/Tpl2 kinase construct encoding residues 30-398; 6His (N); made in house; host or cells: Sf9 insect cells, baculovirus system (BD Biosciences)
T1 sequence (P41279 30-398): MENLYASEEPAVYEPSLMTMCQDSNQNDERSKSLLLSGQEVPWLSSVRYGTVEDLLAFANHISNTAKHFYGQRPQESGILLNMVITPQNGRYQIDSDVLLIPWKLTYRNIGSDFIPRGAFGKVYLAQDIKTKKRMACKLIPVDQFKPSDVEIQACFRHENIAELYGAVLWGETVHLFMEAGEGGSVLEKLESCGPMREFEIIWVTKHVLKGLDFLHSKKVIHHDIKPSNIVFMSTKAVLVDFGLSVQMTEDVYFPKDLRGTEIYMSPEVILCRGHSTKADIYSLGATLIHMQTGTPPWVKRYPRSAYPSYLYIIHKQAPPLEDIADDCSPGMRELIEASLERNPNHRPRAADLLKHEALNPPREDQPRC
As to the kind of experiment: Tpl2/Cot kinase assay: GST-MEK1 phosphorylation detected by ELISA (DELFIA Eu). Type of assay: biochemical. The conditions noted are these: Tpl2/Cot kinase, GST-MEK1 substrate, 50 uM ATP. The gist of the method:
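His-tagged human Tpl2 from Sf9 cells, Ni-affinity and size-exclusion purified (monomer). 0.4 nM Tpl2 with 35 nM GST-MEK1, 50 uM ATP, MOPS pH 7.2, 1% DMSO, 1 h at 30° C; EDTA stop. MEK1 Ser217/221 phosphorylation detected by anti-phospho-MEK1 and Eu-labelled secondary ELISA; IC50 fitted.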
In turn, `CN(CCn1cc(CNc2cc(Cl)c3ncc(C#N)c(Nc4ccc(F)c(Cl)c4)c3c2)nn1)C(=O)OC(C)(C)C` [Example 676] displayed an IC50 of 48 nM.
The result for `CN(CCn1cc(CN(Cc2cn(CCN(C)C(=O)OC(C)(C)C)nn2)c2cc(Br)c3ncc(C#N)c(Nc4ccc(F)c(Cl)c4)c3c2)nn1)C(=O)OC(C)(C)C` [Example 677] reads 4700 nM.
`CN(CCn1cc(CNc2cc(Br)c3ncc(C#N)c(Nc4ccc(F)c(Cl)c4)c3c2)nn1)C(=O)OC(C)(C)C` [Example 678] returned an IC50 of 67 nM.
The compound `CN1CCC(Cn2cc(CN(C)c3cc(Br)c4ncc(C#N)c(Nc5ccc(F)c(Cl)c5)c4c3)nn2)CC1` [Example 679] gave a concentration for half-maximal inhibition (IC50) of 290 nM.
With `CN1CCC(Cn2cc(CNc3cc(Br)c4ncc(C#N)c(Nc5ccc(F)c(Cl)c5)c4c3)nn2)CC1` [Example 680] the figure was 12 nM; with `CN1CCC(n2cc(CN(C)c3cc(Br)c4ncc(C#N)c(Nc5ccc(F)c(Cl)c5)c4c3)nn2)CC1` [Example 681], 22 nM; with `CSCCn1cc(CNc2cc(Br)c3ncc(C#N)c(Nc4ccc(F)c(Cl)c4)c3c2)nn1` [Example 682], 82 nM.
In the case of `COCCCc1nc[nH]c1CNc1cc(Br)c2ncc(C#N)c(Nc3ccc(F)c(Cl)c3)c2c1` [Example 683], the IC50 stood at 62 nM.
`CNCCn1cc(CNc2cc(Br)c3ncc(C#N)c(Nc4ccc(F)c(Cl)c4)c3c2)nn1` [Example 684] registered an IC50 of 38 nM.
As for `CNCCn1cc(CNc2cc(Cl)c3ncc(C#N)c(Nc4ccc(F)c(Cl)c4)c3c2)nn1` [Example 685], the IC50 was 29 nM.
In the case of `N#Cc1cnc2c(Br)cc(NCc3cn(CCO)nn3)cc2c1Nc1ccc(F)c(Cl)c1` [Example 686], half-maximal inhibition (IC50) required 28 nM.
The result for `N#Cc1cnc2c(Br)cc(NCc3cn(CCC4CCNCC4)nn3)cc2c1Nc1ccc(F)c(Cl)c1` [Example 691] reads 90 nM.
The compound `N#Cc1cnc2c(Cl)cc(NCc3cn(CCC4CCNCC4)nn3)cc2c1Nc1ccc(F)c(Cl)c1` [Example 692] had an IC50 of 130 nM.
In the case of `CC(C)(C)OC(=O)N1CCC(CCn2cc(CN(Cc3cn(CCC4CCN(C(=O)OC(C)(C)C)CC4)nn3)c3cc(Br)c4ncc(C#N)c(Nc5ccc(F)c(Cl)c5)c4c3)nn2)CC1` [Example 693], the IC50 was over 3000 nM.
The compound `CS(=O)(=O)CCn1cc(CNc2cc(Br)c3ncc(C#N)c(Nc4ccc(F)c(Cl)c4)c3c2)nn1` [Example 694] had an IC50 of 91 nM.
The result for `CN1CCC(CCn2cc(CNc3cc(Br)c4ncc(C#N)c(Nc5ccc(F)c(Cl)c5)c4c3)nn2)CC1` [Example 695] reads 44 nM; that for `CN1CCC(CCn2cc(CNc3cc(Cl)c4ncc(C#N)c(Nc5ccc(F)c(Cl)c5)c4c3)nn2)CC1` [Example 696], 1.7 nM; that for `N#Cc1cnc2c(Br)cc(NCc3cn(CCCO)nn3)cc2c1Nc1ccc(F)c(Cl)c1` [Example 697], 18 nM.
With `COCCn1cc(CNc2cc(Br)c3ncc(C#N)c(Nc4ccc(F)c(Cl)c4)c3c2)nn1` [Example 698], 18 nM corresponded to half-maximal inhibition (IC50).
With `N#Cc1cnc2c(Br)cc(NCc3cn(CCS(=O)(=O)C4CCCC4)nn3)cc2c1Nc1ccc(F)c(Cl)c1` [Example 699] the figure was 53 nM.
`N#Cc1cnc2c(Br)cc(NCc3cnc4cnccn34)cc2c1Nc1ccc(F)c(Cl)c1` [Example 700] gave an IC50 of 110 nM.
The compound `N#Cc1cnc2c(Br)cc(NCc3cnc4ccccn34)cc2c1Nc1ccc(F)c(Cl)c1` [Example 701] showed an IC50 of 280 nM.
`CS(=O)(=O)CCn1cnc(CNc2cc(Br)c3ncc(C#N)c(Nc4ccc(F)c(Cl)c4)c3c2)c1` [Example 702] displayed an IC50 of 43 nM.
`C[S+]([O-])Cn1cc(CNc2cc(Br)c3ncc(C#N)c(Nc4ccc(F)c(Cl)c4)c3c2)nn1` (stereo not drawn) [Example 703] returned an IC50 of 120 nM.
With `CS(=O)(=O)Cn1cc(CNc2cc(Br)c3ncc(C#N)c(Nc4ccc(F)c(Cl)c4)c3c2)nn1` [Example 704] the figure was 33 nM; with `CSCn1cc(CNc2cc(Br)c3ncc(C#N)c(Nc4ccc(F)c(Cl)c4)c3c2)nn1` [Example 705], 12 nM.
The result for `N#Cc1cnc2c(Br)cc(NCc3cn(Cc4cccnc4)cn3)cc2c1Nc1ccc(F)c(Cl)c1` [Example 706] reads 3.1 nM; that for `N#Cc1cnc2c(Br)cc(NCc3cc(C4CCNCC4)n[nH]3)cc2c1Nc1ccc(F)c(Cl)c1` [Example 707], 800 nM.
The result for `CN1CCCC1CCn1cnc(CNc2cc(Br)c3ncc(C#N)c(Nc4ccc(F)c(Cl)c4)c3c2)c1` (stereo not drawn) [Example 708] reads 34 nM; that for `CS(=O)(=O)N1CCC(n2cc(CNc3cc(Br)c4ncc(C#N)c(Nc5ccc(F)c(Cl)c5)c4c3)nn2)CC1` [Example 710], 1.1 nM; that for `N#Cc1cnc2c(Br)cc(NCc3cn(CCCN4CCCCC4)nn3)cc2c1Nc1ccc(F)c(Cl)c1` [Example 711], 3.4 nM.
On to `N#Cc1cnc2c(Cl)cc(NCc3cn(CCCN4CCCCC4)nn3)cc2c1Nc1ccc(F)c(Cl)c1` [Example 712], for which inhibition was half-maximal at 1.1 nM (IC50).
Take `CC(C)(C)OC(=O)N1CCCC(Cn2cc(CNc3cc(Br)c4ncc(C#N)c(Nc5ccc(F)c(Cl)c5)c4c3)nn2)C1` (stereo not drawn) [Example 713]: the IC50 was found to be 120 nM.
The compound `CC(C)(C)OC(=O)N1CCCC(Cn2cc(CNc3cc(Cl)c4ncc(C#N)c(Nc5ccc(F)c(Cl)c5)c4c3)nn2)C1` (stereo not drawn) [Example 714] yielded an IC50 of 250 nM.
The compound `CC(C)(C)CN1CCC(n2cc(CNc3cc(Br)c4ncc(C#N)c(Nc5ccc(F)c(Cl)c5)c4c3)nn2)CC1` [Example 715] showed a concentration for half-maximal inhibition (IC50) of 190 nM.
The result for `CC(C)(C)OC(=O)N1CCCC1Cn1cc(CNc2cc(Cl)c3ncc(C#N)c(Nc4ccc(F)c(Cl)c4)c3c2)nn1` (stereo not drawn) [Example 716] reads 320 nM; that for `CC(C)(C)OC(=O)N1CCCC1Cn1cc(CNc2cc(Br)c3ncc(C#N)c(Nc4ccc(F)c(Cl)c4)c3c2)nn1` (stereo not drawn) [Example 717], 270 nM.
The result for `N#Cc1cnc2c(Br)cc(NCc3cn(CC4CCCNC4)nn3)cc2c1Nc1ccc(F)c(Cl)c1` (stereo not drawn) [Example 718] reads 33 nM.
With `N#Cc1cnc2c(Cl)cc(NCc3cn(CC4CCCNC4)nn3)cc2c1Nc1ccc(F)c(Cl)c1` (stereo not drawn) [Example 719] the figure was 48 nM; with `CC(=O)N1CCC(n2cc(CNc3cc(Br)c4ncc(C#N)c(Nc5ccc(F)c(Cl)c5)c4c3)nn2)CC1` [Example 720], 6.1 nM; with `N#Cc1cnc2c(Cl)cc(NCc3cn(CC4CCCN4)nn3)cc2c1Nc1ccc(F)c(Cl)c1` (stereo not drawn) [Example 721], 9.1 nM.
`N#Cc1cnc2c(Br)cc(NCc3cn(CC4CCCN4)nn3)cc2c1Nc1ccc(F)c(Cl)c1` (stereo not drawn) [Example 722]: the IC50 came to 9.2 nM.
`N#Cc1cnc2c(Br)cc(NCc3cc([C@@H]4CCCN4)n[nH]3)cc2c1Nc1ccc(F)c(Cl)c1` [Example 724] had an IC50 of 330 nM.
For the compound `N#Cc1cnc2c(Br)cc(NCc3cn(-c4ccncc4)cn3)cc2c1Nc1ccc(F)c(Cl)c1` [Example 725], the IC50 was 23 nM.
`N#Cc1cnc2c(Cl)cc(NCc3cn(Cc4cccnc4)cn3)cc2c1Nc1ccc(F)c(Cl)c1` [Example 726] gave a 50% inhibitory concentration (IC50) of 7 nM.
`N#Cc1cnc2c(Br)cc(NCc3cn(CCc4ccccn4)nn3)cc2c1Nc1ccc(F)c(Cl)c1` [Example 728] gave an IC50 of 3.4 nM.
`N#Cc1cnc2c(Br)cc(NCc3cn(-c4ccncc4)nn3)cc2c1Nc1ccc(F)c(Cl)c1` [Example 729] yielded a half-inhibitory concentration (IC50) of 5.5 nM.
`C=CCn1cc(CNc2cc(Br)c3ncc(C#N)c(Nc4ccc(F)c(Cl)c4)c3c2)nn1` [Example 732] registered a half-maximal inhibitory concentration (IC50) of 20 nM.
With `COCCn1cc(CNc2cc(Cl)c3ncc(C#N)c(Nc4ccc(F)c(Cl)c4)c3c2)nn1` [Example 733], the IC50 was found to be 20 nM.
On to `N#Cc1cnc2c(Cl)cc(NCc3cn(C4CCOCC4)nn3)cc2c1Nc1ccc(F)c(Cl)c1` [Example 734], for which the IC50 turned out to be 14 nM.
The result for `CCN1CCC(Cn2cc(CNc3cc(Br)c4ncc(C#N)c(Nc5ccc(F)c(Cl)c5)c4c3)nn2)CC1` [Example 735] reads 40 nM; that for `CC(C)N1CCC(Cn2cc(CNc3cc(Br)c4ncc(C#N)c(Nc5ccc(F)c(Cl)c5)c4c3)nn2)CC1` [Example 736], 29 nM.
`CCN1CCC(CCn2cc(CNc3cc(Br)c4ncc(C#N)c(Nc5ccc(F)c(Cl)c5)c4c3)nn2)CC1` [Example 737] showed an IC50 of 64 nM.
On to `CC(C)N1CCC(CCn2cc(CNc3cc(Br)c4ncc(C#N)c(Nc5ccc(F)c(Cl)c5)c4c3)nn2)CC1` [Example 738], for which half-maximal inhibition (IC50) required 57 nM.
With `CN(C)CC(c1ccccc1)n1cc(CNc2cc(Br)c3ncc(C#N)c(Nc4ccc(F)c(Cl)c4)c3c2)nn1` (stereo not drawn) [Example 739] the figure was 93 nM.
The result for `CN(C)CC(c1ccccc1)n1cc(CNc2cc(Cl)c3ncc(C#N)c(Nc4ccc(F)c(Cl)c4)c3c2)nn1` (stereo not drawn) [Example 740] reads 70 nM; that for `N#Cc1cnc2c(Br)cc(NCc3cn(CCOCCOCCO)nn3)cc2c1Nc1ccc(F)c(Cl)c1` [Example 741], 140 nM; that for `N#Cc1cnc2c(Cl)cc(NCc3cn(CCOCCOCCO)nn3)cc2c1Nc1ccc(F)c(Cl)c1` [Example 742], 91 nM.
Turning to `COCCOCCn1cc(CNc2cc(Br)c3ncc(C#N)c(Nc4ccc(F)c(Cl)c4)c3c2)nn1` [Example 743], the half-inhibitory concentration (IC50) is 100 nM.
With `COCCOCCn1cc(CNc2cc(Cl)c3ncc(C#N)c(Nc4ccc(F)c(Cl)c4)c3c2)nn1` [Example 744] the figure was 21 nM.
As for `CN(C)CCc1nc[nH]c1CNc1cc(Br)c2ncc(C#N)c(Nc3ccc(F)c(Cl)c3)c2c1` [Example 745], 240 nM corresponded to half-maximal inhibition (IC50).
The result for `N#Cc1cnc2c(Cl)cc(NCc3cn(CCc4ccccn4)nn3)cc2c1Nc1ccc(F)c(Cl)c1` [Example 746] reads 25 nM.
With `N#Cc1cnc2c(Cl)cc(NCc3cn(-c4ccnc(N5CCCCC5)n4)nn3)cc2c1Nc1ccc(F)c(Cl)c1` [Example 747] the figure was 320 nM.
